Reference: patent publication US9497963B2, “Methods and compositions for control of gypsy moth, Lymantria dispar” (Simon Fraser University, priority 2008, dated 2016)
Read-outs that look alike come from different tables or passages of the source.

Assays:
Design in all cases: species or system Lymantria dispar
[1] = tested on: male gypsy moth antenna; experiment: Coupled gas chromatographic-electroantennographic detection (GC-EAD); conditions: EAD peak size and shape (sharp/broad)
Source text: In GC-EAD assays, the analyte is processed by gas chromatography (GC). The column effluent is split, such that molecules of each chromatographic peak arrive simultaneously at the flame ionization detector of the GC and at an anectomized but otherwise intact insect antenna as the biological detector. This procedure detects specific compounds in the analyte that elicit an electrical potential from the antenna.
For GC-EAD recordings, an antenna was carefully dislodged from a male moth's head, and the antennal base placed into the opening of a glass capillary electrode (0.58 mm ID×65 mm length) (A-M Systems, Inc., Carlsborg, Wash., USA) filled with saline solution. The tip of the antenna was removed by spring microscissors (Fine Science Tools Inc., North Vancouver, British Columbia, Canada) and then placed into the opening of the recording electrode mounted on a portable micromanipulator and positioned in front of a constant stream of warm air (Praxair Canada Inc., Mississauga, Ontario, Canada) which delivered the GC column eluent. […] Identical retention times of compounds detected by the flame ionization detector of the GC and by the insect antenna allowed assignment of antennal responses to specific compounds in the eluent.

[2] = tested on: male gypsy moth antenna response to pheromone (+)-1; experiment: EAG short-term (STI) and long-term (LTI) inhibition of pheromone signaling (Example 5); conditions: for inhibition at 0.001 mg / inhibition at 0.01 mg / inhibition at 0.1 mg / inhibition at 100 µg, 0.1 mg: Lymantria dispar; for inhibition at 0.001 mg / inhibition at 0.01 mg / inhibition at 0.1 mg / Activity (%): short-term inhibition (STI): negative = enhancement; for inhibition at 0.001 mg / inhibition at 0.01 mg / inhibition at 0.1 mg: read-out: Activity (%): short-term inhibition (STI); for inhibition at 100 µg, 0.1 mg: read-out: Activity (%): long-term inhibition (LTI)
Protocol: The puffs are numbered i-vi and were: i=air, ii=pure pheromone (+)-disparlure, (+)-1, (100 ng), iii-v=disparlure mixed with the test compound, the latter at three different doses, vi=pure (+)-1. Depolarizations from the resting potential are labeled d; hyperpolarizations seen during the recovery phase after a puff are labeled r. Subscripts refer to the puff number. FIG. 5A. Typical trace for compound 3c{2,3}. FIG. 5B. Typical trace for compound 3a{4,4}.
For other compounds, EAG traces were recorded as follows: a fully dislodged antenna from a male gypsy moth was mounted on the end of a reference electrode (a glass capillary with a silver wire, filled with buffered saline: 5 mM NaH2PO4, 10 mM Na2SO4, 4.5 mM KHCO3, 18 mM MgCl2, 4 mM CaCl2, 6 mM KCl, the pH is adjusted to 6.8 using 5 mM Na2HPO4). The tip of the antenna was severed with microscissors and placed in the recording electrode, which was mounted on a micromanipulator. A constant stream of air, that had been purified (charcoal filter), was blown over the antenna at a rate of 300 mL/min. Test samples were delivered through a stimulus delivery tube with a side opening 2 cm from the distal opening. The proximal end of the delivery tube was connected to a controlled stimulus delivery apparatus (Stimulus controller CS-05 Syntech Research and Equipment, NL 1200BM, Hilversum, The Netherlands). The distal end of the delivery tube pointed at the antenna (1 cm from the antenna). The side opening was connected to a cartridge fashioned from a Pasteur pipette which contained a small filter paper (Whatman No. 1) with the stimulus. These pipette cartridges could be prepared a few days in advance and stored at −80° C. wrapped in Al foil and in sealable plastic bags. Sample cartridges were mounted once they had reached room temperature. The stimulus delivery apparatus delivered a second stream of air (a puff) through the Pasteur pipette at a velocity of 600 mL/min, at a specified point in time, for 0.3 s. Receptor potentials of the antennae in response to test stimuli were recorded with a Syntech IDAC probe, amplifier and interfaced board, and were analyzed with EAG Syntech Software Version 2.4 (1996). See FIG. 4 for a representative EAG trace. The EAG traces were evaluated as follows (see FIG. 5).
The net depolarizations, d(net) (in mV), of puffs ii-vi,d(sample), (corrected for the depolarization with clean air, d(air)) d(net)=d(sample)−d(air) (Eq. 1)
The percentage short-term inhibition for each compound (STI(compound)) of puffs iii-v, relative to the first pure pheromone puff (ii) STI(compound)=100×(d(net)(ii)−d(net)(compound))/d(net)(ii) (Eq. 2)
c) the percentage long-term inhibition for each compound (LTI(compound)) of the pure pheromone puff that followed the last mixed puff (vi) relative to the first pure pheromone puff (ii) LTI(compound)=100×(d(net)(ii)−d(net)(vi))/d(net)(ii) (Eq. 3)
The compounds we tested gave weak or no olfactory responses by themselves in electroantennogram (EAG) experiments. The EAG trace reflects the change in the potential across the antenna when an air puff with an odorant is passed over the antenna. To understand the agonistic or antagonistic effect of the compounds on pheromone responses by male moth antennae, four types of EAG experiment were conducted. First, the response of the antenna elicited by a stimulus of pure (+)-1 was compared to the responses elicited by blends of (+)-1 with the test compound (FIG. 5). […] This effect was termed short-term inhibition (STI). […] Second, the time decay and dose responses for LTI activities were studied. Third, the strongest inhibitors were tested for their ability to cause LTI by themselves.
This experiment explored the agonistic or antagonistic activity of the synthetic aromatic compounds (Scheme 1 and eugenol and alkyl eugenols) with the gypsy moth pheromone (+)-1. […]

[3] = tested on: response of L. dispar antennae to (+)-disparlure; experiment: Competitive electroantennogram (EAG) screen, inhibition of response to (+)-disparlure (Example 4); conditions: Lymantria dispar, means ± S.E.; for inhibition at 0.001 mg: dose 1 μg on cartridge; for inhibition at 0.01 mg: dose 10 μg on cartridge; for inhibition at 0.1 mg: dose 100 μg on cartridge
Protocol: In this assay, libraries and individual compounds are tested for their ability to inhibit the antennal response to the sex attractant pheromone of the gypsy moth, (7R,8S) 2-methyl-7,8-epoxyoctadecane, also known as (+)-disparlure. The controls consisted of a puff of clean air (negative) or of air passed over a cartridge impregnated with (+)-disparlure (100 ng) (positive). The treatments consisted of 100 ng of (+)-disparlure in combination with a compound or library at 1, 10 or 100 μg, on a cartridge over which the air puff was passed. The small arrows above the trace denote the times where the air was puffed over the antenna.
For some compounds, such as the para Compounds 2c{n}, 2c{n,n} and libraries 3c{n,1-5}, EAG competitive assays were performed to investigate whether the diethers inhibit the response of L. dispar antennae to the main component of the sex attractant pheromone cis-(7R,8S)-epoxy-2-methyloctadecane [(+)-disparlure] (FIG. 4). For EAGs a male moth antenna was mounted and placed in front of a stimulus-delivery glass tubing (160×5 mm ID) with a side orifice (2 mm diam) near (2 cm) the distal opening. The tubing was connected to one port of an apparatus (Stimulus Controller CS-05, Syntech Research and Equipment, NL-1200BM Hilversum, The Netherlands) that generated a constant stream of clean air (300 ml/min). The second port of the apparatus was connected to a Pasteur pipette inserted through the side orifice of the stimulus-delivery tubing. The test stimulus was applied to a disc of Whatman #1 filter paper inside the Pasteur pipette and was discharged through a 0.3-sec pulse of air (600 ml/min) Receptor potentials of the antennae in response to test stimuli were recorded with a Syntech IDAC probe, amplifier and interfaced board, and were analyzed with EAG Syntech Software Version 2.4 (1996) Inhibition (%) was calculated as: % inhibition=(Dd−Ds)/Dd×100 (eq. 1)
Where Dd is the depolarization observed with pure disparlure (corrected for clean air background) and Ds is the depolarization with disparlure+sample. See FIG. 4 for a representative EAG inhibition assay trace.

[4] = tested on: L. dispar PBP 1; experiment: Pheromone-binding protein (PBP) ligand binding assay, PBP1; conditions: member tested within library 3c{4, 1-5}
Protocol: A. The protein and ligand are incubated in buffer overnight. B. For half of the incubation mixture, the free ligand (L) is separated from the protein-bound ligand (P.L) by size-exclusion chromatography on P2 Gel (BioRad, exclusion limit 2000 Da). The protein elutes from the small column bed, with its ligand bound (see Examples and […] et al. 2000; Staddon and Everton 1980), while the free ligand is retained on the column ([…] et al. 2000). C. […] The extract from the filtrate (B) contains the protein-bound ligand and the extract from the incubation mixture (A) contains all the ligand (bound and free) present in the aqueous phase. The extracts are analyzed by GC-MS, to obtain values for total ligand in solution (L+P.L) and for protein-bound ligand (P.L). These can then be used to calculate % bound (Table 3). These assays were performed as described in FIG. 3 and as follows: L. dispar PBP 1 or PBP 2 was incubated with the test compound or mini-library. The PBP and the ligand(s) (L) were left to equilibrate (eq 2) overnight. The non-bound ligand was then separated from the protein-bound material (PBP.L) by size-exclusion chromatography. By determining the total ligand in solution at equilibrium (eq. 3) and the protein-bound ligand, it is possible to estimate the percentage of ligand bound to the protein at equilibrium (eq. 4). […] This binding assay has been validated extensively in previous studies ([…] et al. 2000). The components of each mini-library separated cleanly by GC, so it was possible to monitor binding of individual components. PBP+L⇄PBP·L (eq. 2) [L]tot=[L]+[PBP·L] (eq. 3) % bound=100×[PBP·L]/[L]tot (eq. 4) Results: The members of each mini-library separated cleanly by GC, therefore it was possible to monitor binding of individual members to PBP1 or PBP2, the two known PBPs in the gypsy moth, by extraction from the aqueous incubation mixture, followed by GC analysis of the extract (FIG. 3).

[5] = mixed plume (+)-1 100 ng + compound 1 μg, mean ± S.E.
[6] = mixed plume (+)-1 100 ng + compound 10 μg, mean ± S.E.
[7] = mixed plume (+)-1 100 ng + compound 100 μg (puff v), mean ± S.E.
[8] = pure (+)-1 100 ng plume following mixed plume with 100 μg compound, mean ± S.E.

SMILES	GC-EAD activity [1]	inhibition at 0.001 mg [2, 5] [%]	inhibition at 0.01 mg [2, 6] [%]	inhibition at 0.1 mg [2, 7] [%]	inhibition at 100 µg, 0.1 mg [2, 8] [%]	inhibition at 0.001 mg [3] [%]	inhibition at 0.01 mg [3] [%]	inhibition at 0.1 mg [3] [%]	short-term effect on antennal pheromone response (in words) [2]	PBP1 (% bound) [4] [%]	Activity (%): short-term inhibition (STI) [2, 5]	Activity (%): short-term inhibition (STI) [2, 6]	Activity (%): short-term inhibition (STI) [2, 7]	Activity (%): long-term inhibition (LTI) [2, 8]	inhibition at 100 µg, 0.1 mg [2] [%]
COc1ccc(O)cc1 [2c{1}, 4-Methoxy phenol]	None	8 ± 12	21 ± 20	-16 ± 25	10 ± 7	10 ± 5	55 ± 11	43 ± 12	–	–	–	–	–	–	–
CCOc1ccc(O)cc1 [2c{2}, 4-Ethoxy phenol]	None	-3 ± 4	55 ± 5	47 ± 5	7 ± 4	49 ± 10	64 ± 9	45 ± 8	–	–	–	–	–	–	–
CCCOc1ccc(O)cc1 [2c{3}, 4-Propoxy phenol]	None	7 ± 31	29 ± 34	38 ± 12	-8 ± 7	17 ± 14	43 ± 14	35 ± 12	–	–	–	–	–	–	–
CC(C)CCOc1ccc(O)cc1 [2c{5}, 4-(3-Methyl-butyloxy) phenol]	None	47 ± 14	77 ± 7	49 ± 7	2 ± 4	38 ± 17	38 ± 27	19 ± 20	antagonistic	–	–	–	–	–	–
CCCCOc1ccc(OC)cc1 [3c{1,4}, 1-butoxy-4-methoxy benzene]	None	–	–	–	–	–	–	–	–	20 ± 0.4	–	–	–	–	–
CCCCOc1ccc(OCC)cc1 [3c{2,4}, 1-butoxy-4-ethoxy benzene]	None	–	–	–	–	–	–	–	–	10 ± 0.4	–	–	–	–	–
C=CCOc1ccc(OCCC)cc1 [3c{3,6}, 1-allyloxy-4-propoxybenzene]	+ broad	-57 ± 46	-114 ± 51	-168 ± 76	39 ± 15	–	–	–	–	–	–	–	–	–	–
C=CCOc1ccc(OCC=C)cc1 [3c{6,6}, 1,4-Diallyloxy benzene]	Trace	-6 ± 10	45 ± 6	41 ± 8	4 ± 6	–	–	–	–	–	–	–	–	–	–
C=CCc1ccc(OCCCC)c(OC)c1 [Bu eugenol]	None	–	–	–	–	–	–	–	–	–	39 ± 17 (6) %	−68 ± 29 (6) %	−116 ± 24 (6) %	7 ± 4 (6) %	–
C=CCc1ccc(OCC)c(OC)c1 [Et eugenol]	None	3 ± 27	19 ± 18	-121 ± 15	20 ± 3	–	–	–	–	–	–	–	–	–	–
C=CCc1ccc(O)c(OC)c1 [eugenol, 2-methoxy-4-(2-propenyl) phenol, reference compound]	None	–	–	–	–	–	–	–	–	–	–	–	–	–	14 ± 10
C=CCc1ccc(OCCC(C)C)c(OC)c1 [iPent eugenol]	None	–	–	–	–	–	–	–	–	–	11 ± 33 (6) %	−98 ± 26 (6) %	−106 ± 24 (6) %	5 ± 8 (6) %	–
